Test results from patent publication US10479780B2, “Aminopyrazole derivatives” (Chugai Seiyaku Kabushiki Kaisha, priority 2015, dated 2019).

How the values were obtained:
Assay type in all cases: biochemical
human Yes1 enzyme = target: T1, human Yes1 enzyme (Homo sapiens, UniProt P07947); assay: Yes1 enzyme inhibitory activity (time-resolved fluorometry, biotinylated peptide phosphorylation); conditions: biotinylated peptide phosphorylation, read-out: YES_IC50
T1 construct: made in house
Outline: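 Inhibition was expressed against a compound-free control to give IC50, using TR-FRET read-out (Eu-cryptate anti-pTyr antibody, streptavidin-XL665).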

human Lck enzyme = target: T2, human Lck enzyme (Homo sapiens, UniProt P06239); assay: Lck enzyme inhibitory activity (time-resolved fluorometry, biotinylated peptide phosphorylation); conditions: biotinylated peptide phosphorylation, read-out: LCK_IC50
T2 construct: purchased Carna Biosciences, Inc. 08-170
T2 sequence (P06239 whole entry): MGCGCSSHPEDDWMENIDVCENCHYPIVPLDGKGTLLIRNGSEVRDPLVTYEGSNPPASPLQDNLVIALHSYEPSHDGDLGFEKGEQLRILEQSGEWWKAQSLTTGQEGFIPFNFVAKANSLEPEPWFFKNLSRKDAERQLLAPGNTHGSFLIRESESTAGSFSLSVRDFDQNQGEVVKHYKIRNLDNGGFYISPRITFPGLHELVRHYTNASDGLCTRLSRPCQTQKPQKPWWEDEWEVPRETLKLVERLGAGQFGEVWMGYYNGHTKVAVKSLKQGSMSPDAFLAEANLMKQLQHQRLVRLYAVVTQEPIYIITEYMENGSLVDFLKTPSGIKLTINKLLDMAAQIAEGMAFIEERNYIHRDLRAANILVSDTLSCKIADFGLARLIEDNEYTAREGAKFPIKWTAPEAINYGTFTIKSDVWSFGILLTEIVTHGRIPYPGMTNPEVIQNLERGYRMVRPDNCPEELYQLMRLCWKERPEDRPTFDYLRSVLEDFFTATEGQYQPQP
Outline: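 Readout pairs a europium cryptate-labelled anti-phosphotyrosine antibody with XL665-streptavidin, measured by time-resolved fluorescence. IC50 derived from percent inhibition against untreated controls.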

human Src enzyme = target: T3, human Src enzyme (Homo sapiens, UniProt P12931); assay: Src enzyme inhibitory activity (time-resolved fluorometry, biotinylated peptide phosphorylation); conditions: biotinylated peptide phosphorylation, read-out: SRC_IC50
T3 construct: purchased Carna Biosciences, Inc. 08-173
T3 sequence (P12931 whole entry): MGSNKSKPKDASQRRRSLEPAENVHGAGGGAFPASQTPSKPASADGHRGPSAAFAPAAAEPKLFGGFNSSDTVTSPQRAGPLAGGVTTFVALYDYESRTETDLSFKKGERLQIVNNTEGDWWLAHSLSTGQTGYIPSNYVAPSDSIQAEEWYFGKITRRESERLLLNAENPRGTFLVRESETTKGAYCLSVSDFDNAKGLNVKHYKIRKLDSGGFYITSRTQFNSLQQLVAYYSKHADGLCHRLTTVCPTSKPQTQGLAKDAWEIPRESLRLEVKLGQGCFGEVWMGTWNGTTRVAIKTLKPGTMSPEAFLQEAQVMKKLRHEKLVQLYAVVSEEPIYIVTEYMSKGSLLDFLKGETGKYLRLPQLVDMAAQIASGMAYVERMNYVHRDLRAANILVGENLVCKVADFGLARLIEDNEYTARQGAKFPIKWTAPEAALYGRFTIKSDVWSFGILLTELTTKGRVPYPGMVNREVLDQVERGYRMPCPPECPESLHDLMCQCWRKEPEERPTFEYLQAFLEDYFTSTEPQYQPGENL
Outline: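 Compounds were tested for blocking tyrosine phosphorylation of a biotinylated peptide substrate by recombinant human Src. Phosphorylated product was quantified by time-resolved fluorometry using europium cryptate and XL665 conjugates, and IC50 was calculated against the compound-free control.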

T1 sequence (P07947 whole entry): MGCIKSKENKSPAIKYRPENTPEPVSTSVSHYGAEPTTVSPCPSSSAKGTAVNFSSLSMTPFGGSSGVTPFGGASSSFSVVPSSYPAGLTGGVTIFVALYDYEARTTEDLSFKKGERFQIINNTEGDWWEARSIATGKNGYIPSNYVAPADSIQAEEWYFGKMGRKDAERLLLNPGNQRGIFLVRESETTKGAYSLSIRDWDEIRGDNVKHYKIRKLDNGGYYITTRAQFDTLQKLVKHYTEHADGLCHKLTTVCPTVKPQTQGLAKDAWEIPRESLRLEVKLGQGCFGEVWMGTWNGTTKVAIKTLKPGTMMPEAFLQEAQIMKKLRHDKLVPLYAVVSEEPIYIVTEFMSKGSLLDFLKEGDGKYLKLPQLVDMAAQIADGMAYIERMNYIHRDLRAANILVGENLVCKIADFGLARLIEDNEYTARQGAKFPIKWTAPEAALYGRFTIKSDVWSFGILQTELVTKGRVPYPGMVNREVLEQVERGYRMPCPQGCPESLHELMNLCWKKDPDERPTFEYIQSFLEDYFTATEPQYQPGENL

| IC50 (human Yes1 enzyme) | IC50 (human Lck enzyme) | IC50 (human Src enzyme) | SMILES |
| --- | --- | --- | --- |
| 1 nM | 8.7 nM | 48 nM | Cc1cc(Oc2ccccc2F)ncc1-n1ncc(C(=O)c2cc3cc(OC(F)F)c(N4CCCS4(=O)=O)cc3[nH]2)c1N [Example 4-25-004, [5-amino-1-[6-(2-fluorophenoxy)-4-methylpyridin-3-yl]pyrazol-4-yl]-[5-(difluoromethoxy)-6-(1,1-dioxo-1,2-thiazolidin-2-yl)-1H-indol-2-yl]methanone] |
| 3.9 nM | 11 nM | 53 nM | Cc1cc(Oc2c(F)cccc2F)ncc1-n1ncc(C(=O)c2cc3cc(OC(F)F)c(N4CCCS4(=O)=O)cc3[nH]2)c1N [Example 4-25-005, [5-amino-1-[6-(2,6-difluorophenoxy)-4-methylpyridin-3-yl]pyrazol-4-yl]-[5-(difluoromethoxy)-6-(1,1-dioxo-1,2-thiazolidin-2-yl)-1H-indol-2-yl]methanone] |
| 1.1 nM | 9 nM | 18 nM | Cc1cc(Oc2ccccc2F)ccc1-n1ncc(C(=O)c2cc3cc(N4CCOCC4)c(N4CCCS4(=O)=O)cc3[nH]2)c1N [Example 4-25-006, [5-amino-1-[4-(2-fluorophenoxy)-2-methylphenyl]pyrazol-4-yl]-[6-(1,1-dioxo-1,2-thiazolidin-2-yl)-5-morpholin-4-yl-1H-indol-2-yl]methanone] |
| 1.1 nM | 5.2 nM | 23 nM | Cc1cc(Oc2ccccc2F)ncc1-n1ncc(C(=O)c2cc3cc(N4CCOCC4)c(N4CCCS4(=O)=O)cc3[nH]2)c1N [Example 4-25-007, [5-amino-1-[6-(2-fluorophenoxy)-4-methylpyridin-3-yl]pyrazol-4-yl]-[6-(1,1-dioxo-1,2-thiazolidin-2-yl)-5-morpholin-4-yl-1H-indol-2-yl]methanone] |
| 1.5 nM | 8.2 nM | 22 nM | Cc1cc(Oc2c(F)cccc2F)ncc1-n1ncc(C(=O)c2cc3cc(N4CCOCC4)c(N4CCCS4(=O)=O)cc3[nH]2)c1N [Example 4-25-008, [5-amino-1-[6-(2,6-difluorophenoxy)-4-methylpyridin-3-yl]pyrazol-4-yl]-[6-(1,1-dioxo-1,2-thiazolidin-2-yl)-5-morpholin-4-yl-1H-indol-2-yl]methanone] |
| 3.5 nM | 18 nM | 32 nM | Cc1cc(Oc2ccccc2F)ccc1-n1ncc(C(=O)c2cc3cc(OCC(F)F)c(N4CCCS4(=O)=O)cc3[nH]2)c1N [Example 4-25-009, [5-amino-1-[4-(2-fluorophenoxy)-2-methylphenyl]pyrazol-4-yl]-[5-(2,2-difluoroethoxy)-6-(1,1-dioxo-1,2-thiazolidin-2-yl)-1H-indol-2-yl]methanone] |
| 1.7 nM | 7.4 nM | 16 nM | Cc1cc(Oc2ccccc2F)cc(F)c1-n1ncc(C(=O)c2cc3cc(OCC(F)F)c(N4CCCS4(=O)=O)cc3[nH]2)c1N [Example 4-25-010, [5-amino-1-[2-fluoro-4-(2-fluorophenoxy)-6-methylphenyl]pyrazol-4-yl]-[5-(2,2-difluoroethoxy)-6-(1,1-dioxo-1,2-thiazolidin-2-yl)-1H-indol-2-yl]methanone] |
| 1.4 nM | 4.1 nM | 11 nM | Cc1cc(Oc2c(F)cccc2F)ncc1-n1ncc(C(=O)c2cc3cc(OCC(F)F)c(N4CCCS4(=O)=O)cc3[nH]2)c1N [Example 4-25-011, [5-amino-1-[6-(2,6-difluorophenoxy)-4-methylpyridin-3-yl]pyrazol-4-yl]-[5-(2,2-difluoroethoxy)-6-(1,1-dioxo-1,2-thiazolidin-2-yl)-1H-indol-2-yl]methanone] |
| 0.35 nM | 2.1 nM | 3 nM | Cc1cc(Oc2ccccc2F)ccc1-n1ncc(C(=O)c2cc3cc(OCCN4CCOCC4)c(N4CCCS4(=O)=O)cc3[nH]2)c1N [Example 4-25-012, [5-amino-1-[4-(2-fluorophenoxy)-2-methylphenyl]pyrazol-4-yl]-[6-(1,1-dioxo-1,2-thiazolidin-2-yl)-5-(2-morpholin-4-ylethoxy)-1H-indol-2-yl]methanone] |
| 1 nM | 4 nM | 16 nM | Cc1cc(Oc2ccccc2F)ncc1-n1ncc(C(=O)c2cc3cc(OCC(F)F)c(N4CCCC4=O)cc3[nH]2)c1N [Example 4-25-013, 1-{2-{5-amino-1-[6-(2-fluorophenoxy)-4-methylpyridin-3-yl]pyrazole-4-carbonyl}-5-(2,2-difluoroethoxy)-1H-indol-6-yl}pyrrolidin-2-one] |
| 1.1 nM | 2.2 nM | 26 nM | Cc1cc(Oc2ccccc2F)ncc1-n1ncc(C(=O)c2cc3cc(OC(F)F)c(N4CCCC4=O)cc3[nH]2)c1N [Example 4-25-014, 1-[2-[5-amino-1-[6-(2-fluorophenoxy)-4-methylpyridin-3-yl]pyrazole-4-carbonyl]-5-(difluoromethoxy)-1H-indol-6-yl]pyrrolidin-2-one] |
| 4.9 nM | 8.2 nM | 44 nM | Cc1cc(Oc2ccccc2F)cc(F)c1-n1ncc(C(=O)c2cc3cc(OC(F)F)c(N4CCCC4=O)cc3[nH]2)c1N [Example 4-25-015, 1-[2-[5-amino-1-[2-fluoro-4-(2-fluorophenoxy)-6-methylphenyl]pyrazole-4-carbonyl]-5-(difluoromethoxy)-1H-indol-6-yl]pyrrolidin-2-one] |
| 0.48 nM | 1.5 nM | 13 nM | Cc1cc(Oc2ccccc2F)ncc1-n1ncc(C(=O)c2cc3cc(OCC(F)F)c(N4CCOC4=O)cc3[nH]2)c1N [Example 4-25-016, 3-{2-{5-amino-1-[6-(2-fluorophenoxy)-4-methylpyridin-3-yl]pyrazole-4-carbonyl}-5-(2,2-difluoroethoxy)-1H-indol-6-yl}-1,3-oxazolidin-2-one] |
| 1.3 nM | 2.3 nM | 6.4 nM | Cc1cc(Oc2ccccc2F)cc(F)c1-n1ncc(C(=O)c2cc3cc(OCC(F)F)c(N4CCOC4=O)cc3[nH]2)c1N [Example 4-25-017, 3-[2-[5-amino-1-[2-fluoro-4-(2-fluorophenoxy)-6-methylphenyl]pyrazole-4-carbonyl]-5-(2,2-difluoroethoxy)-1H-indol-6-yl]-1,3-oxazolidin-2-one] |
| 0.72 nM | 1.7 nM | 20 nM | Cc1cc(Oc2ccccc2F)ncc1-n1ncc(C(=O)c2cc3cc(OC(F)F)c(N4CCOC4=O)cc3[nH]2)c1N [Example 4-25-018, 3-[2-[5-amino-1-[6-(2-fluorophenoxy)-4-methylpyridin-3-yl]pyrazole-4-carbonyl]-5-(difluoromethoxy)-1H-indol-6-yl]-1,3-oxazolidin-2-one] |
| 5.2 nM | 13 nM | 43 nM | Cc1cc(Oc2ccccc2F)cc(F)c1-n1ncc(C(=O)c2cc3cc(OC(F)F)c(N4CCOC4=O)cc3[nH]2)c1N [Example 4-25-019, 3-[2-[5-amino-1-[2-fluoro-4-(2-fluorophenoxy)-6-methylphenyl]pyrazole-4-carbonyl]-5-(difluoromethoxy)-1H-indol-6-yl]-1,3-oxazolidin-2-one] |
| 1.2 nM | 2.3 nM | 13 nM | Cc1cc(Oc2ccccc2F)ncc1-n1ncc(C(=O)c2cc3cc(OCC(F)F)c(N4CCOCC4)cc3[nH]2)c1N [Example 4-25-020, {5-amino-1-[6-(2-fluorophenoxy)-4-methylpyridin-3-yl]pyrazol-4-yl}-[5-(2,2-difluoroethoxy)-6-morpholin-4-yl-1H-indol-2-yl]methanone] |
| 2.1 nM | 4.6 nM | 16 nM | Cc1cc(Oc2ccccc2F)cc(F)c1-n1ncc(C(=O)c2cc3cc(OCC(F)F)c(N4CCOCC4)cc3[nH]2)c1N [Example 4-25-021, [5-amino-1-[2-fluoro-4-(2-fluorophenoxy)-6-methylphenyl]pyrazol-4-yl]-[5-(2,2-difluoroethoxy)-6-morpholin-4-yl-1H-indol-2-yl]methanone] |
| 5.9 nM | 10 nM | 59 nM | Cc1cc(Oc2ccccc2F)ncc1-n1ncc(C(=O)c2cc3cc(OC(F)F)c(N4CCOCC4)cc3[nH]2)c1N [Example 4-25-022, [5-amino-1-[6-(2-fluorophenoxy)-4-methylpyridin-3-yl]pyrazol-4-yl]-[5-(difluoromethoxy)-6-morpholin-4-yl-1H-indol-2-yl]methanone] |
| 6.3 nM | 16 nM | 86 nM | Cc1cc(Oc2c(F)cccc2F)ncc1-n1ncc(C(=O)c2cc3cc(OC(F)F)c(N4CCOCC4)cc3[nH]2)c1N [Example 4-25-023, [5-amino-1-[6-(2,6-difluorophenoxy)-4-methylpyridin-3-yl]pyrazol-4-yl]-[5-(difluoromethoxy)-6-morpholin-4-yl-1H-indol-2-yl]methanone] |
| 0.69 nM | 29 nM | 55 nM | Cc1cc(Oc2ccccc2F)ccc1-n1ncc(C(=O)c2cc3cc(OC(F)F)c(N4CCOCC4)cc3[nH]2)c1N [Example 4-25-024, [5-amino-1-[4-(2-fluorophenoxy)-2-methylphenyl]pyrazol-4-yl]-[5-(difluoromethoxy)-6-morpholin-4-yl-1H-indol-2-yl]methanone] |
| 17 nM | 31 nM | 80 nM | Cc1cc(Oc2ccccc2F)cc(F)c1-n1ncc(C(=O)c2cc3cc(OC(F)F)c(N4CCOCC4)cc3[nH]2)c1N [Example 4-25-025, [5-amino-1-[2-fluoro-4-(2-fluorophenoxy)-6-methylphenyl]pyrazol-4-yl]-[5-(difluoromethoxy)-6-morpholin-4-yl-1H-indol-2-yl]methanone] |
